According to US10023565B2, “N,N′ substituted piperidinamine compounds, and preparation method and usage thereof” (Institute of Pharmacology and Toxicology Academy of …, priority 2013, dated 2018):

Key:
Hsp70 = molecular target: T1, Hsp70 (Homo sapiens, UniProt P0DMV8); assay: Measurement of affinity between compounds and Hsp70 (SPR, BIACORE T100); format: binding
T1 construct: purchased Enzo Life Sciences ADI-ESP-550-D
Protocol: Instrument for measuring the affinity between Example compounds and Hsp70 is BIACORE T100 Biomolecular Interaction Analysis (GE, USA), and the positive control drug is VER-155008 that is well-recognized as Hsp70 inhibitor now, and, on the basis of the measured results, according to binding characteristics between the compounds and protein, the binding constant (equilibrium dissociation constant KD) between drugs and protein is calculated by selecting steady state model with the formula: Conc*Rmax/[conc+KD]+offset.
1. Instrument: BIACORE T100 Biomolecular Interaction Analysis (GE, USA)
2. Reagents: PBS Buffer (×10), P20, CM5 chip (GE, USA), Hsp70 (human, ADI-ESP-550-D), manufactured by Enzo Life Sciences.
30 mM mother liquor of the compound was formulated with DMSO, which was diluted to 2 mM application solution with DMSO before use. 5 μl of the application solution was taken and diluted with 95 μl 1.05×PBS to 100 μM, and then diluted in turn with PBS containing 5% DMSO to […]. PBS containing 5% DMSO was used as solvent control.
Hsp70 protein was diluted with 10 mmol/L sodium acetate buffer solution (pH 5.0) to 30 μg/ml, and coupled directly on a hydrophilic carboxylmethyl dextran matrix sensor chip M5 through normalized primary amine coupling reaction, RU=11209, and then the chip was balanced for 1-2 h with PBS Buffer at […].
At a flow rate of […], with PBS containing 5% DMSO as mobile phase, at 25° C., the compound was introduced in the sequence of 0.003, 0.01, 0.03, 0.1, 0.3, 1, 3 and 10 μM, with binding time of 90 seconds, and dissociation time of 120 seconds.
According to binding characteristics between the compounds and protein, the binding constant (equilibrium dissociation constant KD) between drugs and protein was calculated by selecting steady state model with the formula: Conc*Rmax/[conc+KD]+offset.

SK/Lap^R1.0 = assay: Antitumor bioactivity evaluation, breast cancer cells (ATPlite); format: cell-based; conditions: Homo sapiens; test sample 5 μM, 72 hours; read-out: Inhibitory Rate % SKLap^R1.0
Protocol: (§1) Antitumor bioactivity evaluation of the compounds of Examples according to the method described below
(§2) Cells plating: a 100 mm culture dish with overgrown adherent cells was digested with 1 ml 0.25% trypsin (GIBCO) at 37° C. for 5 min, and the reaction was terminated with 2 ml culture medium (containing 10% FBS, GIBCO). The cells were scattered and collected, after counting, diluted to 1×10^5 cells/ml, and seeded into a 96-well plate at 50 μl/well, 5000 cells/well, excluding the peripheral circle of wells in which no cell was added, but PBS was added, 60 wells in total, and then incubated at 37° C. for 24 hours for adhering.
(§3) Addition of the compound and lapatinib: the test sample was diluted to a final concentration of 5 μM, and the culture medium with the corresponding compound solvent concentration was filled in the control well, the compound solvent concentration was kept consistent in each well, 5 parellel wells were set for each concentration, 25 μl each well, 25 μl culture medium (in combined group, 25 μl lapatinib was added till a final concentration of 1 μM) supplemented, followed by incubation at 37° C. for 72 hours.
(§4) Test after incubation at 37° C. for 72 hours: 50 μL of ATPlite kit substrate solution was added in each well, and vibrated for 3 min, followed by placing aside in darkness for 10 min, and then supernatant 100 μl/well was taken and placed on aluminescence test plate; the luminescence test plate that has been fully incubated was placed in a luminescence test instrument, to read luminescence value.
(§5) 1. Cell survival rate (%)=Experimental group RLU/control group RLU×100%. The experimental data were subjected to data analysis and processing by utilizing GraphPad software.

MDA-MB-361 = assay: as above; format: cell-based; conditions: Homo sapiens, test sample 5 μM, 72 hours, read-out: Inhibitory Rate % MDA-MB-361
Protocol: as §1, §2, §3, §4, §5

MDA-MB-453 = assay: as above; format: cell-based; conditions: Homo sapiens, test sample 5 μM, 72 hours, read-out: Inhibitory Rate % MDA-MB-453
Protocol: as §1, §2, §3, §4, §5

SK-BR3 = assay: as above; format: cell-based; conditions: Homo sapiens, SK-BR-3; test sample 5 μM, 72 hours; read-out: Inhibitory Rate % SK-BR3
Protocol: as §1, §2, §3, §4, §5

BT474 = assay: as above; format: cell-based; conditions: Homo sapiens, BT-474; test sample 5 μM, 72 hours; read-out: Inhibitory Rate % BT474
Protocol: as §1, §2, §3, §4, §5

BT/Lap^R1.0 = assay: as above; format: cell-based, human; conditions: Homo sapiens; test sample 5 μM, 72 hours; read-out: Inhibitory Rate % BT/Lap^R1.0
Protocol: as §1, §2, §3, §4, §5

T1 sequence (P0DMV8 whole entry): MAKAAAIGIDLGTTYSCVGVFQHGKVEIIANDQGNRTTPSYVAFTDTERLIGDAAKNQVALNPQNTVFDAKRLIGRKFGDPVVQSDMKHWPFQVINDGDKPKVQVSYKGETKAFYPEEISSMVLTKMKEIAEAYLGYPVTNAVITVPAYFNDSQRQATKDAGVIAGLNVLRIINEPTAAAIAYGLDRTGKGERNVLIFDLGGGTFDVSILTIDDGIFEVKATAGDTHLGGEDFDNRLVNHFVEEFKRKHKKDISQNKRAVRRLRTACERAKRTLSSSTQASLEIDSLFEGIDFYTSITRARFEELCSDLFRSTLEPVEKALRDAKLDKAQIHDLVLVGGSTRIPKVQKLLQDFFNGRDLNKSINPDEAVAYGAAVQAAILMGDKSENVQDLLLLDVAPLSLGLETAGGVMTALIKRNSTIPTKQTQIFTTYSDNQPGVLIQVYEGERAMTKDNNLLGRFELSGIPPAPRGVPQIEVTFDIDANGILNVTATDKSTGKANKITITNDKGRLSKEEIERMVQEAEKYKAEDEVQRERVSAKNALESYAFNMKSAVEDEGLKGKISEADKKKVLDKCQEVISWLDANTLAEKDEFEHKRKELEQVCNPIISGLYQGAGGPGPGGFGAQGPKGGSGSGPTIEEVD

| Structure (SMILES) | KD compared with positive control drug VER-155008 (Hsp70) | Kd (Hsp70; steady state model, 25° C., read-out: KD (binding constant between the compounds and Hsp70)) [nM] | inhibition at 5 µM (SK/Lap^R1.0) [%] | inhibition at 5 µM (MDA-MB-361) [%] | inhibition at 5 µM (MDA-MB-453) [%] | inhibition at 5 µM (SK-BR3) [%] | inhibition at 5 µM (BT474) [%] | inhibition at 5 µM (BT/Lap^R1.0) [%] |
| --- | --- | --- | --- | --- | --- | --- | --- | --- |
| Fc1ccc(CNC2CCN(Cc3cnc(Cl)s3)CC2)cc1 [Example 12, N-(4-fluorobenzyl)-N-{1-[(2-chlorothiazol-5-yl)methyl]piperidin-4-yl}amine] | KD values equivalent to that of the positive control drug VER-155008 | 200 | 4.4 | 4.8 | 0.1 | 22.4 | 5.4 | 9.1 |
| COc1nccc(N2CCC(N(C)Cc3cc(Cl)ccc3Cl)CC2)n1 [Example 52, N-methyl-N-(2,5-dichlorobenzyl)-N-[1-(2-methoxypyrimidin-4-yl)piperidin-4-yl]amine] |  |  | 80.7 | 64.1 | 68.7 | 87.6 | 74.2 | 68.1 |
| COc1nccc(N2CCC(N(C)Cc3ccc(Cl)c(Cl)c3)CC2)n1 [Example 53, N-methyl-N-(3,4-dichlorobenzyl)-N-[1-(2-methoxypyrimidin-4-yl)piperidin-4-yl]amine] |  |  | 16.8 | 41.7 | 60.2 | 27.7 | 52.9 | 35.8 |
| COc1nccc(N2CCC(N(C)Cc3c(F)cccc3Cl)CC2)n1 [Example 54, N-methyl-N-(2-fluoro-6-chlorobenzyl)-N-[1-(2-methoxypyrimidin-4-yl)piperidin-4-yl]amine] |  |  | 17.2 | 48.3 | 64.7 | 27.7 | 65.4 | 62.4 |
| COc1nccc(N2CCC(N(C)Cc3cccc(Cl)c3)CC2)n1 [Example 55, N-methyl-N-(3-chlorobenzyl)-N-[1-(2-methoxypyrimidin-4-yl)piperidin-4-yl]amine] |  |  | 15.1 | 23.2 | 56.7 | 18.5 | 36.2 | 26.2 |
| COc1nccc(N2CCC(N(C)Cc3cccc(F)c3)CC2)n1 [Example 56, N-methyl-N-(3-fluorobenzyl)-N-[1-(2-methoxypyrimidin-4-yl)piperidin-4-yl]amine] |  |  | 3.9 | 8.5 | 27.9 | 9.2 | 9.9 | 10.5 |
| COc1cc(N2CCC(N(C)Cc3ccccc3Cl)CC2)ncn1 [Example 58, N-methyl-N-(2-chlorobenzyl)-N-[1-(6-methoxypyrimidin-4-yl)piperidin-4-yl]amine] |  |  | 29 | 20.3 | 46.7 | 13.5 | 27.7 | 18.9 |
| COc1cc(N2CCC(N(C)Cc3ccc(C)cc3)CC2)ncn1 [Example 59, N-methyl-N-(4-methylbenzyl)-N-[1-(6-methoxypyrimidin-4-yl)piperidin-4-yl]amine] |  |  | 22 | 10.6 | 13.4 | 20.6 | 5 | 8 |
| COc1cc(N2CCC(N(C)Cc3c(Cl)cccc3Cl)CC2)ncn1 [Example 60, N-methyl-N-(2,6-dichlorobenzyl)-N-[1-(6-methoxypyrimidin-4-yl)piperidin-4-yl]amine] |  |  | 19.2 | 30.8 | 65.1 | 22.8 | 53.6 | 52.5 |
| COc1cc(N2CCC(N(C)Cc3ccc(Cl)c(Cl)c3)CC2)ncn1 [Example 61, N-methyl-N-(3,4-dichlorobenzyl)-N-[1-(6-methoxypyrimidin-4-yl)piperidin-4-yl]amine] |  |  | 28 | 6.5 | 12.7 | 16.1 | 9.8 | 9.2 |
| COc1cc(N2CCC(N(C)Cc3ccc(F)cc3)CC2)ncn1 [Example 62, N-methyl-N-(4-fluorobenzyl)-N-[1-(6-methoxypyrimidin-4-yl)piperidin-4-yl]amine] |  |  | 5.7 | 4.9 | 5 | 7.6 | 7.8 | 8.1 |
| COc1cc(N2CCC(N(C)Cc3cccc(Cl)c3)CC2)ncn1 [Example 63, N-methyl-N-(3-chlorobenzyl)-N-[1-(6-methoxypyrimidin-4-yl)piperidin-4-yl]amine] |  |  | 24.8 | 25.6 | 23.8 | 12.6 | 11.9 | 9.4 |
| COc1cc(N2CCC(N(C)Cc3c(F)cccc3Cl)CC2)ncn1 [Example 64, N-methyl-N-(2-fluoro-6-chlorobenzyl)-N-[1-(6-methoxypyrimidin-4-yl)piperidin-4-yl] amine] |  |  | 16.6 | 39.6 | 59.4 | 15.5 | 45.9 | 48.5 |
| COc1cc(N2CCC(N(C)Cc3ccccc3C#N)CC2)ncn1 [Example 65, N-methyl-N-(2-cyanobenzyl)-N-[1-(6-methoxypyrimidin-4-yl)piperidin-4-yl]amine] |  |  | 16.8 | 42.7 | 66.1 | 23.3 | 65.8 | 62.2 |
| COc1cc(N2CCC(N(C)Cc3ccc(C#N)cc3)CC2)ncn1 [Example 66, N-methyl-N-(p-cyanobenzyl)-N-[1-(6-methoxypyrimidin-4-yl)piperidin-4-yl]amine] |  |  | 8.8 | 20.3 | 46.1 | 17.3 | 25.1 | 16.9 |
| COc1cc(N2CCC(N(C)Cc3cc(Cl)ccc3Cl)CC2)ncn1 [Example 67, N-methyl-N-(2,5-dichlorobenzyl)-N-[1-(6-methoxypyrimidin-4-yl)piperidin-4-yl]amine] |  |  | 9.4 | 27.6 | 61.1 | 29.2 | 45.9 | 32.1 |
| COc1cc(N2CCC(N(C)Cc3cccc(F)c3)CC2)ncn1 [Example 68, N-methyl-N-(3-fluorobenzyl)-N-[1-(6-methoxypyrimidin-4-yl)piperidin-4-yl]amine] |  |  | 30.1 | 8.4 | 9.4 | 5.2 | 5.4 | 5.6 |
| CS(=O)(=O)CCNCc1ccc(-c2ccc3ncnc(Nc4ccc(OCc5cccc(F)c5)c(Cl)c4)c3c2)o1 [lapatinib, reference compound] |  |  | 10.4 | 40.2 | 42.6 | 79 | 75.6 | 18 |
